According to the CombiSolv-Exp solvation set (Vermeire and Green 2021):

Assay: solvent given as SMILES

CC1=CCC2C3C1C2(C)CCCC3(C)C (configuration not stated)
Conditions | solvation free energy, 298 K [kcal/mol]
in O | 0.29

CC1=CC2C(CC1)C2(C)C (configuration not stated)
Conditions | solvation free energy, 298 K [kcal/mol]
in O | 0.78

CC(C)[N+](=O)[O-]
Conditions | solvation free energy, 298 K [kcal/mol]
in CCCCCCC | -3.81
in ClC(Cl)(Cl)Cl | -4.57
in O | -3.13
in c1ccccc1 | -5.07

C#CC
Conditions | solvation free energy, 298 K [kcal/mol]
in C1CCC2CCCCC2C1 | -1.49
in C1COCCO1 | -2.46
in CC1COC(=O)O1 | -2.04
in CC(C)=O | -2.48
in CC(C)CC(C)(C)C | -1.66
in CCCCCCCCCCCCCCCC | -1.4
in CN1CCCC1=O | -2.47
in CN(C)C=O | -2.49
in CN(C)P(=O)(N(C)C)N(C)C | -2.6
in COC(C)=O | -2.51
in COCCOCCOCCOC | -2.03
in CS(C)=O | -2.14
in Nc1ccccc1 | -2.01
in O | -0.48
in OCCCOCCCO | -1.53
in OCCO | -1.22
in OCc1ccccc1 | -1.77

CCCCCCC(C)O (configuration not stated)
Conditions | solvation free energy, 298 K [kcal/mol]
in CCCCCCC | -5.86
in O | -3.77

CCCCCCCCC=O
Conditions | solvation free energy, 298 K [kcal/mol]
in NC=O | -4.37
in O | -2.08

CCC(=O)CC
Conditions | solvation free energy, 298 K [kcal/mol]
in CC(C)CCCC(C)CCCC(C)CCCCC(C)CCCC(C)CCCC(C)C | -3.73
in CCCCCCC | -4.04
in CCCCCCCCC=CCCCCCCCC(=O)OCC(COC(=O)CCCCCCCC=CCCCCCCCC)OC(=O)CCCCCCCC=CCCCCCCCC | -4.31
in CCCCCCCCCCCCCCCC | -3.73
in CCCCCCCCO | -4.34
in CN1CCCC1=O | -4.76
in CO | -4.96
in O | -3.33
in O=CN1CCOCC1 | -4.45
in [2H]O[2H] | -3.27

CCCCCCCCCCCCCCCCCCCCC
Conditions | solvation free energy, 298 K [kcal/mol]
in CC(=O)N(C)C | -14.3
in CC(C)(C)O | -12.9
in CN(C)C=O | -14.4
in O | 4.71

COCC(OC)(OC)OC
Conditions | solvation free energy, 298 K [kcal/mol]
in O | -5.73

Cc1ccc(N)cc1
Conditions | solvation free energy, 298 K [kcal/mol]
in CC(C)CC(C)(C)C | -6.29
in CCCCCC | -6.06
in CCCCCCC | -6.14
in CCCCCCCC | -6.29
in Cc1cccc(C)c1 | -7.26
in Cc1ccccc1C | -7.27

Nc1cccc2ccccc12
Conditions | solvation free energy, 298 K [kcal/mol]
in CCCCCC | -8.87
in CCCCCCCC | -8.82
in O | -7.4

C=C1C2CCC3C2C(C)(C)CCCC13C (configuration not stated)
Conditions | solvation free energy, 298 K [kcal/mol]
in O | 0.8

CC(C)CC(C)C
Conditions | solvation free energy, 298 K [kcal/mol]
in Brc1ccccc1 | -3.81
in C1CCCCC1 | -4.32
in C1CCOC1 | -4.15
in C1COCCO1 | -3.39
in C=CCCCC | -4.22
in C=CCCCCCC | -4.16
in C=CCCCCCCCC | -4.06
in C=CCCCCCCCCCCCCCC | -3.72
in CC1COC(=O)O1 | -2.21
in CC#N | -2.78
in CC(=O)N(C)C | -2.97
in CC(=O)O | -3.06
in CC(=O)c1ccccc1 | -3.18
in CC(C)=O | -3.45
in CC(C)CC(C)(C)C | -4.15
in CC(C)CCCC(C)CCCC(C)CCCCC(C)CCCC(C)CCCC(C)C | -3.68
in CC(C)CCO | -3.6
in CC(C)O | -3.45
in CC(C)OC(C)C | -4.18
in CCBr | -4.27
in CCC#N | -3.18
in CCC(C)=O | -3.66
in CCCC#N | -3.41
in CCCC(=O)OCC | -3.87
in CCCC(C)=O | -3.74
in CCCCC | -4.33
in CCCCCC | -4.35
in CCCCCC(C)=O | -3.75
in CCCCCCC | -4.22
in CCCCCCCC | -4.14
in CCCCCCCCC | -4.1
in CCCCCCCCCC | -4.06
in CCCCCCCCCCCC | -3.94
in CCCCCCCCCCCCCCCC | -3.85
in CCCCCCCCCCCCO | -3.49
in CCCCCCCCO | -3.57
in CCCCCCOC(C)=O | -3.87
in CCCCO | -3.5
in CCCCOC(C)=O | -3.81
in CCCCOCCCC | -4.13
in CCCO | -3.39
in CCN(CC)CC | -4.26
in CCO | -3.34
in CCOC(C)=O | -3.69
in CCOCC | -4.19
in CCOCCOCCOCC | -3.59
in CCOc1ccccc1 | -3.64
in CN1CCCC1=O | -2.82
in CN(C)C=O | -2.82
in CN(C)P(=O)(N(C)C)N(C)C | -3.23
in CNC=O | -2.49
in CO | -2.99
in COC(C)=O | -3.51
in COCCO | -2.84
in COc1ccccc1 | -3.57
in CS(C)=O | -2.03
in Cc1ccc(C)cc1 | -4.07
in Cc1ccccc1 | -4.07
in Cc1ccccn1 | -3.66
in ClC(Cl)(Cl)Cl | -4.29
in ClC(Cl)Cl | -4.17
in ClCCCl | -3.63
in ClCCl | -3.96
in Clc1ccccc1 | -4.04
in FC(F)(F)C(F)(F)C(F)(F)C(F)(F)C(F)(F)C(F)(F)C(F)(F)C(F)(F)F | -2.77
in FC(F)(F)C(F)(F)C(F)(F)C(F)(F)C(F)(F)C(F)(F)F | -2.85
in Fc1ccccc1 | -4.04
in ICI | -2.14
in N#Cc1ccccc1 | -3.27
in Nc1ccccc1 | -2.55
in O | 2.86
in O=C1CCCCC1 | -3.56
in O=C1CCCO1 | -2.36
in OCc1ccccc1 | -2.76
in S=C=S | -4.19
in c1ccccc1 | -4.03
in c1ccncc1 | -3.4

CCc1ccccc1O
Conditions | solvation free energy, 298 K [kcal/mol]
in CCCCCC | -6.6
in O | -5.85

CC(=O)Oc1ccccc1
Conditions | solvation free energy, 298 K [kcal/mol]
in O | -4.78

CC12CCC(=O)C=C1CCC1C2C(O)CC2(C)C1CCC2(O)C(=O)C(O)C(CCCCC(N)=O)C(N)=O (configuration not stated)
Conditions | solvation free energy, 298 K [kcal/mol]
in C=CCCCCCCC=C | -29.8
in C=CCCCCCCCCCCCCCC | -27.4
in O | -33.7

CC(C)COC(=O)C(C)C
Conditions | solvation free energy, 298 K [kcal/mol]
in O | -1.69

CCCCCCCCCCCCCCCCCCCCCCCCCC
Conditions | solvation free energy, 298 K [kcal/mol]
in CC(=O)N(C)C | -17.6
in CC(C)(C)O | -15.8
in CN(C)C=O | -17.8
in O | 5.59

CCCC#N
Conditions | solvation free energy, 298 K [kcal/mol]
in C=CCCCCCCCCCCCCCC | -3.53
in CC(C)(C)O | -4.67
in CC(C)CO | -4.56
in CC(C)O | -4.6
in CCC(C)O | -4.57
in CCCCCC | -3.75
in CCCCCCC | -3.68
in CCCCCCCCCCCCCCCC | -3.32
in CCCCCCCCCCO | -3.92
in CCCCCCCCCO | -4.07
in CCCCCCCCO | -4.24
in CCCCCCCO | -4.32
in CCCCCCO | -4.32
in CCCCCO | -4.47
in CCCCO | -4.62
in CO | -5.21
in O | -3.63
in [2H]O[2H] | -3.58

CCCCCCCCCCCCCCCCCCO
Conditions | solvation free energy, 298 K [kcal/mol]
in CC(C)O | -14.9
in CCC(C)=O | -13.8
in CCCCCCCCC=CCCCCCCCC(=O)OCC(COC(=O)CCCCCCCC=CCCCCCCCC)OC(=O)CCCCCCCC=CCCCCCCCC | -12.4
in CCCCCCCCCCO | -14.9
in CCCCCCCCO | -14.9
in CCCCCCO | -14.9
in CCCCOCCCC | -14.5
in CCOCC | -15
in O | -2.43
